From patent publication US20220280561A1, “COPPER-ATSM FOR TREATING NEURODEGENERATIVE DISORDERS ASSOCITED WITH MITOCHONDRIAL DYSFUNCTION” (RESEARCH INSTITUTE AT NATIONWIDE CHILDREN'S HOSPITAL, priority 2019, published 2022)

What was measured:
[1] = test system: ALS iAstrocytes co-cultured with GFP+ motor neurons; assay: co-culture of CuATSM-pretreated ALS iAstrocytes with GFP+ motor neurons; format: cell-based, human
Description: Neuronal progenitors cells were cultured on fibronectin coated dishes in NPC media (DMEM/F12 media containing 1% N2 supplement (Life Technologies), 1% B27 and 20 ng/ml fibroblast growth factor-2) until confluent. Astrocytes were differentiated by seeding a small quantity of NPCs on another fibronectin coated dish in astrocyte inducing media (DMEM media containing 0.2% N2 and 10% FBS). Cells were treated with CuATSM daily, beginning day 2 of differentiation. Five days post differentiation, induced astrocytes were seeded either into a 96 well (10,000 cells/well), 384 well (2,500 cells/well), a 24 well seahorse plate (20,000 cells/well) or a 96 well seahorse plate (25,000 cells/well treated, 12,500 cells/well untreated).
Co-culture: Stem cells from HB9:GFP+ mouse embryos were cultured as described previously (Meyer 2014). […] Motor neurons with neurite outgrowth of greater than 50 um were counted as alive. […]
A previously established direct conversion co-culture system was utilized to assess the therapeutic potential of CuATSM in the treatment of ALS (Meyer et al., PNAS, 111 (2) 829-832(2014)). […] Three days following co-cultures motor neurons were imaged (FIG. 1B) and motor neuron survival was calculated (FIG. 1C). […]

ALS iAstrocytes = assay: Seahorse glycolysis (glycoPER), mitochondrial coupling and fuel dependency in iAstrocytes; format: cell-based, human
Description: Oxygen consumption rate (OCR) and extracellular acidification rate (ECAR) were used to calculate glycolytic […] efflux rate (glycoPER), which quantifies media acidification by lactate production. Total cellular glycolysis (FIG. 12B) is measured following mitochondrial shutdown (difference between basal and AA/Rot injection). Percent mitochondrial coupling (FIG. 12C) was calculated using values from basal and/or ATP-linked respiration using data from FIG. 2. […] Dashed bars indicate patient lines classified as nonresponders in co-culture assay. Dotted line represents average control values. Data represents a minimum of 3 independent experiments. Statistical analysis was performed using one way ANOVA comparing average controls.
The impact of CuATSM on mitochondrial activity and glycolysis was assessed using the Seahorse. iAstrocytes were seeded on a 24 or 96 well Seahorse plate for extracellular flux analysis. Oxygen consumption rate (OCR) and extracellular acidification rate (ECAR) were used to calculate glycolytic […] efflux rate (glycoPER), which quantifies media acidification by lactate production. Total cellular glycolysis (FIG. 13A) is measured following inhibition of mitochondrial electron transport chain. Mitochondrial coupling (FIG. 13B) was calculated using values for basal and/or ATP-linked respiration obtained from FIG. 3. Dashed bars indicate patient lines classified as nonresponders in co-culture assay. […] In addition, slight mitochondrial uncoupling was observed which may explain the previously observed reduction in mitochondrial activity. Dotted line represents average control values. Data for FIGS. 13A-13B represents a minimum of 3 independent experiments. Statistical analysis was performed using a student t-test comparing treated lines against corresponding untreated controls.
The effect of CuATSM on mitochondrial dependency on glutamine (FIG. 16A), fatty acid (FIG. 16B) and glucose (FIG. 16C) oxidation is determined using the Seahorse. Basal oxygen consumption (OCR) was measured for three time points followed by a pathway specific inhibitor (UK5099, etomoxir, BPTES). The difference in OCR following inhibitor addition determines mitochondrial fuel dependency on specific pathway tested. […] Dotted line represents average control values. Data represents a minimum of 3 independent experiments. Statistical analysis was performed using one way ANOVA comparing the average of controls.
Astrocytes provide critical metabolic support for motor neurons by releasing lactate that can be used as a source of energy, thus glycolysis is a key metabolic phenotype of astrocytes. […] Based on these observations it was next determined whether CuATSM was impacting mitochondrial coupling. […]

Compound: CN=C([S-])N/N=C(C)/C(C)=N/NC([S-])=NC.[Cu+2] [CuATSM, diacetyl-bis(4-methylthiosemicarbazonato) copperII]
- motor neuron survival following co-culture ([1]; iAstrocytes treated daily during differentiation with 1 Um CuATSM, 3 days co-culture, all patient lines except ALS3 and ALS7): increased motor neuron survival
- motor neuron survival following co-culture, responder classification ([1]; patient lines ALS3 (sALS) and ALS7 (C9ORF72)): nonresponders
- mitochondrial dependency on glucose (ALS iAstrocytes; CuATSM nonresponders): not changed
- mitochondrial coupling (ALS iAstrocytes; all iAstrocytes treated with CuATSM): modest, yet significant reduction in coupling
- cellular glycolysis (ALS iAstrocytes; every cell line tested, including responders, nonresponders and healthy controls): significant increase in cellular glycolysis
- mitochondrial dependency on glutamine, fatty acid and glucose oxidation (ALS iAstrocytes; patient iAstrocytes, changes are patient specific): does not impact mitochondrial metabolic dependency
